{"source": "patent EP1669365A1", "about": "“Method for preparing enzymatic substrate analogs as inhibitors of bacterial heptosyl-transferases” (priority 2004, dated 2006)", "molecular_target": "T1, WaaC (Escherichia coli, UniProt P24173)", "T1 construct": "made in house; host or cells: E. coli BL21 double mutant with the heptosyltransferase I and II genes deleted", "T1 sequence (P24173 whole entry)": "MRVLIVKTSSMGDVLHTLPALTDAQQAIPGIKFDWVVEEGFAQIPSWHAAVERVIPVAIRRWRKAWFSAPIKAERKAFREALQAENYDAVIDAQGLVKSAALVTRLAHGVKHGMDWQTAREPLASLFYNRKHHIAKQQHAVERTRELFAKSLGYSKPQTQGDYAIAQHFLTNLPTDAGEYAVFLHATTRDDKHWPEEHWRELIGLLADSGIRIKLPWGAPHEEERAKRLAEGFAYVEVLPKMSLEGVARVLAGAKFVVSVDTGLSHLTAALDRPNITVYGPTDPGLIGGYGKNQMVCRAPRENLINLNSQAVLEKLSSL", "assay": "WaaC IC50 fluorimetric in vitro heptosyltransferase assay (NADH fluorescence, pyruvate kinase/lactate dehydrogenase coupled)", "type": "biochemical", "settings": "inhibitory activity on Waac enzymatic activity; 1nM purified WaaC, 3µM Re-LPS, pH 7.0", "procedure": "A fluorimetric in vitro assay was set up to quantify the enzymatic activity of purified heptosyl transferase.Said fluorimetic assay is used to identify inhibitors and for measuring IC50 determinations.\nWaaC IC50 assays are performed in black 96-well plates (Wallac) in a final volume of 100µL at pH 7.0 comprising: the inhibitor studied dissolved in 2µL DMSO at 10 different concentrations, 50mM HEPES, 10mM MgCl2, 50mM KCl, 0.1% Triton-), 3µM Re-LPS (Sigma, purified from Salmonella Minnesota), 1nM of purified WaaC, 5u/mL Pyruvate kinase (Sigma), 50µM Phosphoenolpyruvate (Sigma), 5u/mL Lactate dehydrogenase (Sigma) and 1.5µM NADH (Sigma). Fluorescence intensity of NADH (λex= 360nm, λem=520nm) is read once before enzyme addition (background), and is followed kinetically afterwards. Initial velocities are determined from the linear phase after background substraction. IC50 curves are fitted to a classical sigmoidal model with Hill slope.", "data": [{"substance": "Adenosine 5'-diphospho-2-Deoxy-2-fluoro-6-L-glycero-β-D-heptoglucopyranoside", "values": [{"measurement": "IC50", "value": 57, "unit": "µM"}]}]}
